These results are taken from patent US8889651B2, “Trehalose derivatives, preparation method and uses thereof” (Joyochem Co., Ltd., priority 2010, dated 2014).

The subject of data set [1] is colon cancer 26-L5 cell invasion. The experiment in a line: recombinant basement membrane invasion experiment (Transwell/Matrigel). The data set is classed as cell-based. Conditions: for IC50 / IC50 (μg/mL): inhibition of colon cancer 26-L5 cell invasion. As for the experimental part:
Invasion and metastasis are basic characteristics of malignant tumors. During the tumor metastasis process, the tumor cell invasion into a basement membrane is an important link. A conventional recombinant basement membrane invasion experiment is adopted, a natural product Brartemicin is taken as positive control, and the inhibition action of trehalose derivatives against colon cancer 26-L5 cell invasion activity is determined.
Polycarbonate membrane 8 μm (Nucleopore, Pleasanton, Calif., USA); Transwell cell culture chamber (Costar 3422, Cambridge, Mass., USA); fibronectin (FN; Collaborative Research Inc., Bedford, Mass., USA); Matrigel (Collaborative Research Inc., Bedford, Mass., USA); RPMI1640 culture medium containing 1% of fetal calf serum (FCS) (Collaborative Research Inc., Bedford, Mass., USA); and hematoxylin-eosin (HE) staining kit (Collaborative Research Inc., Bedford, Mass, USA).
20 μg of fibronectin is smeared on the lower layer of a Transwell cell culture chamber, and 5 μg of Matrigel is smeared on the upper layer. Colon cancer 26-L5 cells in an exponential growth phase are suspended in an RPMI1640 culture medium containing 1% of fetal calf serum (FCS), which contains different concentrations of the trehalose derivatives or different concentrations of Brartemicin. […] The filter ester membranes contain the colored colon cancer 26-L5 cells after invasion. The ester membranes are placed on glass slides and are subjected to permeabilization by xylene, neutral resin is used for sealing, and the invasion cells are counted under a 400× microscope. The number of the penetrating cells of each membrane is counted from five different visual fields, namely upper, lower, left, right and middle visual fields, the average value is calculated, and three filter membranes are arranged in parallel in each group.
The natural product Brartemicin is taken as the positive control, the inhibition action of the trehalose derivatives against the colon cancer 26-L5 cell invasion activity is determined, and the activity experiment results are as shown in the following Table 1.

In a further data set the test system is normal cells. Conditions: background statement; cited from earlier work.
For data set [2], the system named is colon cancer 26-L5 cell invasion. Conditions: background statement; read-out: anti-colon cancer 26-L5 cell invasion activity IC50; cited from earlier work.

Where two headings read alike, the source gives them in different places.

On to `O=C(OCC1OC(OC2OC(COC(=O)c3ccc(O)cc3)C(O)C(O)C2O)C(O)C(O)C1O)c1ccc(O)cc1` (stereo not drawn) [Compound 3d], for which the “anti-colon cancer 26-L5 cell invasion activity (in words)” value in data set [1] is listed as “strong anti-colon cancer 26-L5 cell invasion activity”.

As for `COc1cccc(C(=O)OC[C@H]2O[C@H](O[C@H]3O[C@H](COC(=O)c4cccc(OC)c4OC)[C@@H](O)[C@H](O)[C@H]3O)[C@H](O)[C@@H](O)[C@@H]2O)c1OC` [Compound 3e], in data set [1], the “activity compared with the natural product Brartemicin” value is listed as “stronger activity than the natural product Brartemicin” and the “anti-colon cancer 26-L5 cell invasion activity (in words)” value is recorded as “strong anti-colon cancer 26-L5 cell invasion activity”. Also, the concentration for half-maximal inhibition (IC50) in data set [1] (incubation 6-8 hours) was determined as 0.10 mg/L. The half-maximal inhibitory concentration (IC50) in data set [1] (same value given in μM, read-out: IC50) was found to be 0.15 µM.

`O=C(OCC1OC(OC2OC(COC(=O)c3c(F)cccc3F)C(O)C(O)C2O)C(O)C(O)C1O)c1c(F)cccc1F` (stereo not drawn) [Compound 3f]: the “anti-colon cancer 26-L5 cell invasion activity (in words)” value in data set [1] is “strong anti-colon cancer 26-L5 cell invasion activity”.

Consider `Cc1cccc(N)c1C(=O)OC[C@H]1O[C@H](O[C@H]2O[C@H](COC(=O)c3c(C)cccc3N)[C@@H](O)[C@H](O)[C@H]2O)[C@H](O)[C@@H](O)[C@@H]1O` [Compound 3g], for which the “anti-colon cancer 26-L5 cell invasion activity (in words)” value in data set [1] was “strong anti-colon cancer 26-L5 cell invasion activity”.

As for `Cc1cc(O)cc(O)c1C(=O)OC[C@H]1O[C@H](O[C@H]2O[C@H](COC(=O)c3c(C)cc(O)cc3O)[C@@H](O)[C@H](O)[C@H]2O)[C@H](O)[C@@H](O)[C@@H]1O` [Brartemicin], the IC50 was 0.25 mg/L in data set [1] (incubation 6-8 hours, read-out: IC50) and 0.39 µM in data set [2]. Further, the “toxicity against normal cells” value with normal cells is “no toxicity against normal cells”.

Turning to `Cc1ccccc1C(=O)OC[C@H]1O[C@H](O[C@H]2O[C@H](COC(=O)c3ccccc3C)[C@@H](O)[C@H](O)[C@H]2O)[C@H](O)[C@@H](O)[C@@H]1O` [Compound 3b, 6,6″-bis(2-methylbenzoyl)-α,α-D-trehalose], in data set [1] (incubation 6-8 hours), the “IC50 (μg/mL)” value is recorded as “NA (NA: no activity when IC50 is 10 μg/mL)”.

`COc1ccc(C(=O)OC[C@H]2O[C@H](O[C@H]3O[C@H](COC(=O)c4ccc(OC)cc4)[C@@H](O)[C@H](O)[C@H]3O)[C@H](O)[C@@H](O)[C@@H]2O)cc1` [Compound 3c, 6,6′-bis(4-methoxybenzoyl)-α,α-D-trehalose]: the “IC50 (μg/mL)” value in data set [1] (incubation 6-8 hours) is on record as “NA (NA: no activity when IC50 is 10 μg/mL)”.

Take `COc1ccccc1C(=O)OCC1OC(OC2OC(COC(=O)c3ccccc3OC)C(O)C(O)C2O)C(O)C(O)C1O` [Compound 3a, 6,6′-bis(2-methoxybenzoyl)-α,α-D-trehalose]: the “anti-colon cancer 26-L5 cell invasion activity (in words)” value in data set [1] was “strong anti-colon cancer 26-L5 cell invasion activity”.

In the case of `COc1cc(C(=O)OCC2OC(OC3OC(COC(=O)c4ccc(F)c(OC)c4)C(O)C(O)C3O)C(O)C(O)C2O)ccc1F` (stereo not drawn) [Compound 3h], the “IC50 (μg/mL)” value in data set [1] (incubation 6-8 hours) was “NA (NA: no activity when IC50 is 10 μg/mL)”.

For `COc1cc(C(=O)OC[C@H]2O[C@H](O[C@H]3O[C@H](COC(=O)c4cc(OC)c(OC)c(OC)c4)[C@@H](O)[C@H](O)[C@H]3O)[C@H](O)[C@@H](O)[C@@H]2O)cc(OC)c1OC` [Compound 3i], the “IC50 (μg/mL)” value in data set [1] (incubation 6-8 hours) is “NA (NA: no activity when IC50 is 10 μg/mL)”.

As a reminder, the IC50 is the concentration that gives 50% inhibition.
